# Experimental data from patent EP1276895B1, “METHOD FOR THE IDENTIFICATION OF ACTIVE SITE PROTEASE INACTIVATORS” (THE UNIVERSITY OF GEORGIA RESEARCH FOUNDATION, INC., priority 2000, dated 2001).
# Residues, ends and D or L forms follow the SMILES beside them. *: point of attachment. AFC = O=c1cc(C(F)(F)F)c2ccc(N*)cc2o1; Cbz = O=C(OCc1ccccc1)*; CH2F = FC*
# Columns and labels:
# [1] = system: purified Taenia solium cysteine protease; assay: Substrate cleavage screen of AFC-linked synthetic substrates (Step II), purified protease; type: biochemical; settings: 1 ug purified protease, 1 ug substrate, Citrate pH 4.9 with 0.01 M cysteine, 18 h, 37 °C
# Experimental: In this step, the most efficacious substrate for detection of the cysteine protease (high Kcat substrate) was determined in vitro along with those substrates which were not well cleaved (low kcat substrates). From this point forth, the following conditions refer to all assays: "assay buffer" refers to 0.4 M Citrate, pH 4.9 (the pH optima of the protease). Incubation time was 18 hours at 37°C. These conditions were determined by our preliminary data to be best for kinetic evaluation of the protease. […] The experiments were conducted in […] Borosilicate mini-culture tubes (Fisher Scientific), and a fluorometer (Turner) was employed for detection of AFC cleavage.
# Approximately 1 ug (or a proteolytically detectable amount) of the purified target cysteine protease was incubated individually, with 1 ug of each of the available substrates in 500 uL of assay buffer. During this setup, the substrate was pre-incubated in the assay buffer for a short period of time (20 minutes) in order to reach an equilibrated status before the addition of the protease. Cleavage assessments were based upon the property of the protease to cleave synthetic peptide substrates linked at the C-terminus to 7-Amino-4-Trifluoromethyl Coumarin (AFC) as previously described. AFC linked tripeptides, dipeptides, and monopeptides, (with a variety of permutations at P3-P1) were available from Enzyme Systems Products (Livermore, CA), and were used as the source of the subset. Following incubation of enzyme preparations overnight (18 h, 37 °C) with peptide in assay buffer (Citrate, pH 4.9, supplemented with 0.01 M cysteine), free AFC concentrations were measured fluorometrically (excitation 405 nm, emission 505 nm). The proteolytic cleavage released the AFC group, which was measurable as a free molecule by a standard fluorometer and converted into molar quantities, based upon a previously established standard curve. The simplicity of AFC detection by the fluorometer was a key factor which quickened and simplified the procedures.
# In the assay, 1 ug of the purified Taenia cysteine protease was added to a saturating amount of Z-Phe-Arg-AFC (4X10^-5 M) in assay buffer. The experiment was conducted in triplicate and repeated at least 5 times until we were certain that variability in AFC cleavage was not statistically significant.
# Vmax was calculated for the cleavage of substrates by the purified target protease and Vmax was calculated for substrates cleaved by the crude mix protease using conventional kinetic modeling calculations already described in the art.
# Cathepsin H (cysteine) = target: T1, Cathepsin H (cysteine) (Homo sapiens, UniProt P09668); assay: Differential cleavage (selectivity) test, Cathepsin H; type: biochemical; settings: 0.15 M PBS pH 6.8, 10 mM L-cysteine, substrate L-R-AFC; for inhibition at 0.0003 µM: inhibitor 3 X 10^-10 M
# T1 sequence (P09668 98-335): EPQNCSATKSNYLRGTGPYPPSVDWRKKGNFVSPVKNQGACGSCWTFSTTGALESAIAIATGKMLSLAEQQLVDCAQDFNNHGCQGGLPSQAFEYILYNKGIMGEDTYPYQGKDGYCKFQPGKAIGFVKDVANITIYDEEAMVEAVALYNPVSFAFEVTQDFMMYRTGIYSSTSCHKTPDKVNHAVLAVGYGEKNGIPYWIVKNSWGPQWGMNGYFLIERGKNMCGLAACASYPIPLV
# Experimental: In order to perform the assay, the vehicle (for Step VI) or inhibitor (for Step IX) were incubated with the appropriate substrate in the correct assay buffer and allowed to equilibrate. Subsequently, the protease was added, and the assay was allowed to incubate for an appropriate time. The concentrations used in this experiment were as follows: Vehicle was set up at 4 X 10^-5 M in final assay buffer; Inhibitor was set up at 3 X 10^-10 M in the final assay buffer. Accordingly, the dosages employed should be the minimal amount of vehicle or inhibitor necessary to induce inhibition. […] Substrates were set up based upon the preferred substrate for cleavage of the particular enzyme.
# Positive controls were set up similarly as described for test controls, except that solvent was added in substitution for the inhibitor or vehicle (in a volume equal to the volume of inhibitor or vehicle addition). All of the inhibitors and vehicles could be dissolved in dimethylsulfoxide (DMSO), and therefore, this was the solvent of choice. Negative controls were set up by adding the inhibitor or vehicle and the preferred substrates in a tube without the protease. All potential non-proteolytic liberation of AFC was therefore controlled for in this tube (a feature which also insured stability of the AFC substrates, since these substrates will freely liberate AFC when unstable).
# All controls were set up in triplicate, and experiments were repeated a minimum of five times.
# Percent inhibition was calculated as: % Inhibition = ((AFC positive for ʺSIʺ-AFC negative for ʺSIʺ)-(AFC test-AFC negative for ʺSIʺ))/(AFC positive for ʺSIʺ-AFC negative for ʺSIʺ) × 100 [formula] In this preliminary test, we employed the following human-derived enzymes (with indicated mechanistic class): Cathepsin B (cysteine), Cathepsin L (cysteine), Cathepsin H (cysteine), Cathepsin D (aspartic) Trypsin (serine), the purified Taenia solium cysteine protease, and the Taenia solium crude mix. Cathepsin B was prepared in an assay buffer of 10 mM L-cysteine in 0.4 M Citrate buffer, pH 6.1, using Z-ARR-AFC as the cleavage substrate. Cathepsin L was prepared in an assay buffer of 10 mM L-cysteine in 0.4 M Citrate buffer, pH 5.5, using Z-FR-AFC as the cleavage substrate. Cathepsin H was prepared in an assay buffer of 10 mM L-cysteine in 0.15 M PBS buffer, pH 6.8, using L-R-AFC as the cleavage substrate. Cathepsin D was prepared in an assay buffer of 0.15 M PBS, pH 7.1, using Z-RGFFP-AFC as the cleavage substrate. Trypsin was prepared in an assay buffer of 0.15 M PBS, pH 8.0, supplemented with 100 mM CaCl2 and with Z-R-AFC as the cleavage substrate. Enzyme was incubated so that it was at least 50 times less than the concentration of substrate in order to insure saturating conditions.
Molecule,cleavage of AFC-linked substrate (Vmax) [1],inhibition at 40 µM (Cathepsin H (cysteine); vehicle 4 X 10^-5 M),inhibition at 0.0003 µM (Cathepsin H (cysteine)),cleavage of AFC-linked substrate (Vmax) ([1]; listed as M-LY-AFC),"% Inhibition (Cathepsin H (cysteine); vehicle 4 X 10^-5 M, 40 µM)"
"CC(C)C[C@H](NC(=O)OCc1ccccc1)C(=O)N[C@@H](CC(C)C)C(=O)N[C@@H](CC(C)C)C(=O)Nc1ccc2c(C(F)(F)F)cc(=O)oc2c1 [Z-LLL-AFC, Z-Leu-Leu-Leu-AFC] (Cbz-Leu-Leu-Leu-{AFC})",noncleavable,0%,–,–,–
"CC(C)C[C@H](NC(=O)[C@H](CC(C)C)NC(=O)[C@H](CC(C)C)NC(=O)OCc1ccccc1)C(=O)CF [Z-LLL-FMK, Z-Leu-Leu-Leu-fluoromethylketone] (Cbz-Leu-Leu-Leu-CH2F)",–,–,0%,–,–
"CC(C)C[C@H](NC(=O)OCc1ccccc1)C(=O)N[C@@H](CC(C)C)C(=O)N[C@@H](Cc1ccc(O)cc1)C(=O)Nc1ccc2c(C(F)(F)F)cc(=O)oc2c1 [Z-LLY-AFC, Z-Leu-Leu-Tyr-AFC] (Cbz-Leu-Leu-Tyr-{AFC})",noncleavable,0%,–,–,–
"CC(C)C[C@H](NC(=O)OCc1ccccc1)C(=O)N[C@@H](CC(C)C)C(=O)N[C@@H](Cc1ccc(O)cc1)C(=O)CF [Z-LLY-FMK, Z-Leu-Leu-Tyr-FMK] (Cbz-Leu-Leu-Tyr-CH2F)",–,–,0%,–,–
Mu-Leu-Tyr-AFC [Mu-LY-AFC],not cleaved,–,–,noncleavable,0%
